Values after ≈ are worked out from the molar mass of the structure shown. Where two headings read alike, the source gives them in different places.
Experiments:
[1] = Solubility in buffers at various pH values by dissolution tester, absorbance at 275 nm, 37° C.; assay type: physicochemical; details: for solubility in a buffer at a pH value of 1: pH 1, potassium chloride-hydrochloric acid buffer
Description: The amorphous piretanide obtained as described in Example 1 was analyzed for solubility in a buffer at various pH values by means of a dissolution tester, using piretanide form A as a control.
(§1) A sufficient amount of the amorphous piretanide to ensure supersaturation was added to 500 ml each of the buffers at various pH values as indicated below, and about 10 ml of a solution was sampled at appropriate intervals and filtered using a 0.45 μm filter. About 5 ml of the initial solution was discarded and the remainder was used as a sample solution and, if required, diluted with the same buffer. Solubility was determined by absorbance at 275 nm.
Buffer: pH 1 Potassium chloride-hydrochloric acid system
pH 3 Sodium chloride-glycine-hydrochloric acid system
pH 6.8 JP XII, second fluid
Solution temperature: 37° C.
The piretanide polymorph obtained as described in Example 6 was analyzed for solubility in a buffer at various pH values by means of a dissolution tester, using piretanide form A as a control.
as §1, with “buffer, if necessary, solubility” for “buffer. Solubility”

[2] = cited from earlier work; for solubility in a buffer at a pH value of 3: pH 3, 37° C.; for solubility at a pH value of 6.8: pH 6.8, 37° C.
[3] = Solubility in buffers at various pH values by dissolution tester, absorbance at 275 nm, 37° C.; assay type: physicochemical; details: pH 1, 37° C., vs piretanide form B
[4] = pH 3, sodium chloride-glycine-hydrochloric acid buffer

solubility in a buffer at a pH value of 1 [1] [mg/100 ml]	solubility in a buffer at a pH value of 3 [1, 4] [mg/100 ml]	solubility in a buffer at a pH value of 6.8 ([1]; pH 6.8, JP XII second fluid) [mg/100 ml]	solubility ([1]; jp xii second fluid, pH 6.8, pH 6.8, JP XII second fluid, read-out: solubility in a buffer at a pH value of 6.8 (control, unit as printed)) [µg/mL]	solubility ([1]; jp xii second fluid, pH 6.8, pH 6.8, JP XII second fluid, read-out: solubility in a buffer at a pH value of 6.8) [µg/mL]	solubility ([1]; nacl-glycine-hcl buffer, pH 3, aqueous buffer, pH 3, sodium chloride-glycine-hydrochloric acid buffer, read-out: solubility in a buffer at a pH value of 3) [µg/mL]	SMILES	solubility in a buffer at a pH value of 1 ([2]; pH 1, 37° C., background) [mg/100 ml]	solubility in a buffer at a pH value of 3 ([2]; background) [mg/100 ml]	solubility at a pH value of 6.8 ([2]; background) [mg/100 ml]	water solubility ([2]; water, 20° C.) [mg/100 ml]	solubility compared with piretanide form B, pH 1 (in words) [3]
15.2	6.5	901.3				NS(=O)(=O)c1cc(C(=O)O)cc(N2CCCC2)c1Oc1ccccc1 [amorphous piretanide, 4-phenoxy-3-(1-pyrrolidinyl)-5-sulfamoyl-benzoicacid]					
7.5	4.2		1940 (≈ 5.35 mM)			NS(=O)(=O)c1cc(C(=O)O)cc(N2CCCC2)c1Oc1ccccc1 [piretanide form A, 4-phenoxy-3-(1-pyrrolidinyl)-5-sulfamoyl-benzoicacid]	7.5	4.2	193.8	7.9	
						NS(=O)(=O)c1cc(C(=O)O)cc(N2CCCC2)c1Oc1ccccc1 [piretanide form B, 4-phenoxy-3-(1-pyrrolidinyl)-5-sulfamoyl-benzoicacid]		6.4	195.4		
12.2				9270 (≈ 25.6 mM)	67 (≈ 0.185 mM)	NS(=O)(=O)c1cc(C(=O)O)cc(N2CCCC2)c1Oc1ccccc1 [piretanide polymorph, 4-phenoxy-3-(1-pyrrolidinyl)-5-sulfamoyl-benzoicacid]					approximately similar solubility to that of piretanide form B

Source: patent US6096779A, “Amorphous piretanide, piretanide polymorphs, process for their preparation and their use” (Hoechst Pharmaceuticals & Chemicals K.K., priority 1995, dated 2000)
